Reference: US7795427B2, “Methods for inhibiting osteoclast differentiation, formation, or function and for increasing bone mass” (New York University, priority 2006, dated 2010)
“Also recorded” adds a separate entry of the source.

What was measured:
[1] = test system: bone marrow cells; assay: RANKL-induced osteoclast formation from bone marrow cells (TRAP-positive MNC count); format: cell-based, mouse; conditions: for osteoclast formation: M-CSF and RANKL
From the text: FIG. 1. Effect of DPCPX on osteoclast formation by bone marrow cells. […] After 7 days cells were fixed and stained for TRAP, and the number of TRAP-positive MNCs per well was scored. (Similar results were obtained in three independent experiments). Bone marrow cells were isolated from 5- to 8-wk-old C57BL/6 female mice. Femurs and tibiae were aseptically removed and dissected free of adherent soft tissues. The bone ends were cut, and the marrow cavity was flushed out with medium αMEM from one end of the bone using a sterile 21-gauge needle. The bone marrow suspension was carefully agitated with a plastic Pasteur pipette to obtain a single-cell suspension. The cells were washed twice and resuspended (3.75×10^5 cells/ml) in α MEM containing 10% FBS, and this suspension was added to 24-well plates (500 μl/well). To each of these wells an additional 500 μl of medium containing M-CSF (30 ng/ml) and RANKL (30 ng/ml) without or with various concentrations of DPCPX and N6-CPA were added. Cultures were fed every 3 days by replacing 500 μl of culture medium with an equal quantity of fresh medium and reagents. After incubation for 7 days, wells were prepared for tartrate-resistant acid phosphatase (TRAP) staining. The number of TRAP-positive multinucleated cells (MNCs) containing three or more nuclei was scored. Osteoclast formation was evaluated by quantification of Tartrate-Resistant Acid Phosphatase (TRAP)-positive multinucleated cells (MNCs) using a modification of the method of Burstone. […] TRAP is preferentially expressed at high levels in osteoclasts and is considered, especially in the mouse, to be an osteoclast marker. After incubation, cells on wells were washed in PBS, fixed in 4% paraformaldehyde for 10 min, and stained for acid phosphatase in the presence of 0.3 M sodium tartrate (Sigma-Aldrich). The substrate used was napthol AS-BI phosphate (Sigma-Aldrich). Only those cells that were strongly TRAP-positive (dark red) and have more than 3 nuclei were counted by light microscopy.

[2] = test system: murine splenocytes; assay: RANKL-induced osteoclast formation by splenocytes (TRAP-positive MNC count); format: cell-based, mouse; conditions: for osteoclast formation: M-CSF and RANKL
Experimental: FIG. 4. Effect of DPCPX on osteoclast formation by Splenocytes. […] After 7 days cells were fixed and stained for TRAP, and the number of TRAP-positive MNCs per well was scored. (Similar results were obtained in three independent experiments). Splenocytes were isolated from 5- to 8-wk-old C57BL/6 female mice aspreviously described with modification. In brief, spleens were putted on top of 100 μm cell strainer in 50 ml falcon, mashed with plunger and rinsed the released cells through the strainer with 8 ml PBS. The nonadherent cells were layered on top of the lymphocyte separation medium. The cells were spin 1500 rpm for 20 minutes. The macrophages/lymphocyte white band was located about 1 cm below the top of the LSM. The PBS was aspirated until 1 ml above the band then 1 ml was removing to 50 ml Falcon including the band. To this Falcon 19 ml PBS was added and spine 1500 rpm for 15 minutes. PBS was removed and 10 ml αMEM was added. The cells were resuspended (3×10^5 cells/ml) in αMEM containing 10% FBS, and this suspension was added to 24-well plates ([…]) as described above. […] TRAP is preferentially expressed at high levels in osteoclasts and is considered, especially in the mouse, to be an osteoclast marker. After incubation, cells on wells were washed in PBS, fixed in 4% paraformaldehyde for 10 min, and stained for acid phosphatase in the presence of 0.3 M sodium tartrate (Sigma-Aldrich). The substrate used was napthol AS-BI phosphate (Sigma-Aldrich). Only those cells that were strongly TRAP-positive (dark red) and have more than 3 nuclei were counted by light microscopy.

[3] = test system: osteoclast precursors; assay: Osteoclast formation with DPCPX added at different days of culture; format: cell-based, mouse
Experimental: FIG. 5. DPCPX Inhibits Osteoclastogenesis by Acting on Osteoclast Precursors. […] After culture for 7 days with DPCPX, cells were stained for TRAP. Results are expressed as the mean±SEM of three cultures per variable. […] TRAP is preferentially expressed at high levels in osteoclasts and is considered, especially in the mouse, to be an osteoclast marker. After incubation, cells on wells were washed in PBS, fixed in 4% paraformaldehyde for 10 min, and stained for acid phosphatase in the presence of 0.3 M sodium tartrate (Sigma-Aldrich). The substrate used was napthol AS-BI phosphate (Sigma-Aldrich). Only those cells that were strongly TRAP-positive (dark red) and have more than 3 nuclei were counted by light microscopy. To determine at which stage DPCPX inhibits osteoclast differentiation, osteoclast precursors were incubated with M-CSF, RANKL and DPCPX was added on day 0, 3 and 6. After culture for a total of 7 days with DPCPX, TRAP-positive multinucleated cells were enumerated.

[4] = test system: PU.1 mRNA; assay: RT-PCR of PU.1 mRNA in osteoclast precursors; format: cell-based, mouse; conditions: DPCPX 1 μM, M-CSF and RANKL, 7 days
From the text: (§1) FIG. 7. […] I.D. NO: 21); c-Fos antisense [NT]. I.D. NO: 22); PU.1.- sense [NT]. I.D. NO: 23); PU.1 antisense [NT]. […] I.D. NO: 10).

[5] = test system: c-Fos mRNA; assay: RT-PCR of c-Fos mRNA in osteoclast precursors; format: cell-based, mouse; conditions: DPCPX 1 μM, M-CSF and RANKL, 7 days
From the text: as §1

[6] = test system: RANKL-induced NF-κB signaling; assay: RANKL-induced NF-κB signaling in osteoclast precursors (Western blot of cytoplasmic and nuclear fractions); format: cell-based, mouse; design: dose or concentration left out as unconfirmed; conditions: M-CSF and RANKL
[7] = test system: TRAF6; assay: TRAF6 level in cells under A1 receptor blockade (other studies, data not shown); format: cell-based; conditions: adenosine A1 receptors blocked by DPCPX (data not shown)
[8] = test system: ovariectomized C57BL/6 mice; assay: Bone loss due to ovariectomy (microCT); format: in vivo, mouse; conditions: OVX C57BL/6 mice, DPCPX 50 mg/kg/d oral in water, 5 weeks
Experimental: FIG. 12. Effects of the A1R Antagonist DPCPX on Bone Loss Due to Ovariectomy. […] Data are expressed as percent change relative to sham-operated vehicle-treated control mice. 6 Week old C57bl/6 female mice received ovariectomy or a sham procedure in which the ovaries were exteriorized but not removed. Mice were sacrificed 5 weeks after the surgical procedure. Mice were treated with either water alone or DPCPX dissolved in water and adjusted, based on the weight of the animals, to a dose of 50 mg/kg/d. Femoral μCT was measured as described (Hildebrand […] new method for the model-independent assessment of thickness in three-dimensional images. J Microsc 1997; 185:67-75) by using a MS-8 (MS-8, GE Healthcare, London, Ontario, Canada) at 18 μm isotropic resolution-scans calibrated by air, water and a mineral standard material phantom/Parker algorithm for digital reconstruction.

[9] = M-CSF and DPCPX without RANKL (data not shown)
[10] = increasing concentrations of DPCPX added day 0 with M-CSF and RANKL (30 ng/ml each), 7 days
[11] = DPCPX 3 days (per FIG. 8 legend)

For `CCCn1c(=O)c2[nH]c(C3CCCC3)nc2n(CCC)c1=O` [DPCPX, 8-cyclopentyl-1,3-dipropylxanthine], the osteoclast formation ([1]; DPCPX 1 nM, 7 days) was “significantly inhibit”, the osteoclast formation ([1]; DPCPX 1 μM, 7 days) was “complete inhibition” and the “TRAP-positive cells in the absence of RANKL” value [1, 9] was “no TRAP-positive cells were seen”. For the same compound, the “number of TRAP-positive cells” value [1, 10] was “strikingly inhibited the number of TRAP-positive cells in a dose-dependent manner”, the osteoclast formation ([2]; DPCPX 1 nM, 7 days) was “significantly inhibited” and the osteoclast formation ([2]; DPCPX 1 μM, 7 days) was “almost complete inhibition”. For the same compound, the “TRAP-positive cells in the absence of RANKL” value [2, 9] was “no TRAP-positive cells were seen”, the “number of TRAP-positive multinucleated cells” value [2, 10] was “strikingly diminished the number of TRAP-positive multinucleated cells in a dose-dependent manner” and the osteoclast formation ([3]; DPCPX added on day 0, total culture 7 days) was “inhibited”. The osteoclast formation ([3]; DPCPX addition delayed (day 3, day 6), total culture 7 days) was “inhibition decreased”, the “PU.1 mRNA expression” value [4] was “does not affect” and the “c-Fos mRNA expression” value [5] was “does not affect”. The “cytoplasmic p50 and p65” value [6, 11] was “accumulate in the cytoplasm”, the “nuclear translocation of p50 and p65” value [6, 11] was “totally prevents” and the “RANKL-induced degradation of IκB” value ([6]; DPCPX treatment for 3 days (per FIG. 8 legend)) was “inhibited”. The “TRAF6 in the cell” value [7] was “is lost from the cell” and the “bone mass / trabecular bone volume (bone volume/total volume) following ovariectomy” value [8] was “did not lose bone mass; also recorded: prevents ovariectomy-induced bone loss”.
